Source: patent US11618916B2, “Probe for measuring activity of Caspase-1 and composition for diagnosis of inflammatory diseases containing same” (KOREA INSTITUTE OF SCIENCE AND TECHNOLOGY, priority 2018, dated 2023)

Experiments:
[1] = test system: T1, probe for measuring the activity of caspase-1 prepared in Example 4
T1 sequence: GWEHDGK

[2] = test system: inflammation-induced animal model; assay: Detection of inflammation in LPS/ATP inflammation-induced animal model, IVIS Lumina imaging; type: in vivo, C57BL/6 mice
Method: The caspase-1 enzyme is activated due to various factors. Among them, the most representative method is to activate inflammasome by administering LPS or ATP which induces early inflammation response. In Test Example 5, it was confirmed using the probe for measuring the activity of caspase-1 of Example 4 that the administration of LPS and ATP induced the activation of inflammasome, which is an early inflammation response. In this test example, an experiment was carried out using an inflammation-induced animal model in order to investigate whether the probe for measuring the activity of caspase-1 of Example 4 works well in vivo, too. In order to establish the inflammation-induced animal model, 8-week-old C57BL/6 mice acquired from Nara Bio were accustomed for a week and then reared in animal plastic cages, with 4 mice per cage. The cage was controlled with artificial lighting for 12 hours from 7 am to […], indoor temperature of 18-23° C. and 40-60% humidity. Clean water and feed were given freely. Then, physiological saline (control group), 20 μg of LPS and 50 mM ATP (Ms1 test group) or 20 μg of LPS and 100 mM ATP (Ms2 test group) was injected into the left sole of the experimental animal. After intravenously injecting the probe for measuring the activity of caspase-1 prepared in Example 4 with 3-day intervals, the respective groups were imaged with IVIS Lumina with 30-minute intervals.

[3] = test system: colitis animal model (DSS); assay: Imaging of DSS colitis animal model; type: in vivo, C57BL/6 mice; conditions: DSS vs normal
Method: In order to establish a colitis animal model, 8-week-old C57BL/6 mice acquired from Nara Bio were accustomed for a week and then reared in animal plastic cages, with 4 mice per cage. The cage was controlled with artificial lighting for 12 hours from 7 am to 7 pm, indoor temperature of 18-23° C. and 40-60% humidity. Clean water and feed were given freely. Colitis was induced by providing the experimental animal with drinking water containing 3% dextran sodium sulfate (DSS). […] Because the body weight of the colitis animal model decreases proportionally to the progress of the disease, the probe for measuring the activity of caspase-1 of Example 4 was administered on day 6, when the body weight was decreased to 80%, for imaging. As a control group (normal), a non-colitis-induced group was prepared by providing normal drinking water to the experimental animal.

THP-1 monocytes = assay: Fluorescence restoration in LPS/ATP-treated cells, fluorescence microscope; type: cell-based; conditions: THP-1 treated with 1.5 μg/mL LPS and 5 mM ATP, probe 3.5 hours later; vs control without LPS/ATP; FIG. 4B
Method: THP-1 monocytes were placed on a 96-well plate and treated with 1.5 μg/mL LPS and 5 mM ATP one day later. 3.5 hours later, the probe for measuring the activity of caspase-1 prepared in Example 4 was administered. Then, after culturing for 24 hours, fluorescence restoration by the probe for measuring the activity of caspase-1 in the cells was analyzed with a fluorescence microscope.
Control was treated with neither LPS nor ATP.
LPS and ATP are known to activate caspase-1. LPS is a primary signal occurring in the early stage of inflammation and ATP is a secondary signal. […] That is to say, it was confirmed that the probe for measuring the activity of caspase-1 of the present disclosure can accurately measure caspase-1 activated by inflammation response.

Alzheimer's animal model = assay: Imaging of Alzheimer's animal model; type: in vivo, B6SJL-Tg (APPSwFILon, PSEN1*M146L*L286V)6799Vas/Mmjax) mice
Method: In order to establish an Alzheimer's animal model, 3- to 6-month-old B6SJL-Tg (APPSwFILon, PSEN1*M146L*L286V)6799Vas/Mmjax) mice acquired from the […] (Bar Harbor, USA) were accustomed for a week and then reared in animal plastic cages, with 4 mice per cage. The cage was controlled with artificial lighting for 12 hours from 7 am to 7 pm, indoor temperature of 18-23° C. and 40-60% humidity. Clean water and feed were given freely. An Alzheimer's animal model was induced through genetic APP mutation. Amyloid beta, which is the cause of dementia, is accumulated from 3 months later and form aggregates 4 months later. […] A control group (pre) was not subjected to the genetic mutation.

caspase-1 enzyme [4] = target: T2, caspase-1 enzyme (Homo sapiens, UniProt P29466); assay: Specific activity of probe: fluorescence restoration with caspase enzymes (caspase-1, 3, 8, 11) or caspase-1 inhibitor; type: biochemical; conditions: caspase-1, 3, 8, 11 at 2 units or caspase-1 inhibitor; 37° C.; FIG. 3A
T2 sequence (P29466 120-297 limits assumed): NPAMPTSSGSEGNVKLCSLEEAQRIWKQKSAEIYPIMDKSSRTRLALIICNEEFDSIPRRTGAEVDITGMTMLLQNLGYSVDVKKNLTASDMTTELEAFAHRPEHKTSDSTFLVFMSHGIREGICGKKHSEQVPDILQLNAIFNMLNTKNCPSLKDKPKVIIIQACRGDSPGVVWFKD
T2 sequence (P29466 317-404 limits assumed): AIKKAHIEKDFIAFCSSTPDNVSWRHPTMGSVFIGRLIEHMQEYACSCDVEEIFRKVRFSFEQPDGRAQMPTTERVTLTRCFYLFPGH
Method: In order to investigate whether the probe for measuring the activity of caspase-1 prepared in Example 4 is specifically cleaved by the caspase-1 enzyme and restores fluorescence, the change in fluorescence with time was analyzed and evaluated using various caspase enzymes (caspase-1, 3, 8 and 11) and a caspase-1 inhibitor.
First, a caspase enzyme or a caspase-1 inhibitor was dissolved in a reaction buffer (0.5 mM HEPES, pH 7.2, 50 mM calcium chloride, 0.1% CHAPS, 10 mM EDTA, 5% glycerol, 10 mM DTT) and then incubated at 37° C. for 1 hour. All the enzymes were used at the same concentration of 2 units. After transferring 200 μL of the caspase enzyme activated through the procedure to each well of a 96-well plate and then incubating with the probe for measuring the activity of caspase-1 of Example 4 at 37° C., the restoration of fluorescence with time was observed by fluorescence spectroscopy.
The photographs at the bottom of FIG. 3A show the fluorescence images of the respective reaction solutions. (+)Cas-1 was treated with the caspase-1 enzyme, (+)cas-1 inhibitor was treated with the caspase-1 inhibitor, (+)cas-3 was treated with the caspase-3 enzyme, (+)cas-8 was treated with the caspase-8 enzyme, and (+)cas-11 was treated with the caspase-11 enzyme.

caspase-1 enzyme [5] = target: T2, caspase-1 enzyme; assay: Fluorescence restoration depending on caspase-1 enzyme concentration; type: biochemical; conditions: FIG. 3B
Method: In order to investigate the fluorescence of the probe for measuring the activity of caspase-1 prepared in Example 4 depending on the concentration of the caspase-1 enzyme, the change in fluorescence with time was analyzed and evaluated using the caspase-1 enzyme at various concentrations (0, 2.5, 5, 7.5 and 10 units).
First, the caspase enzyme of various concentrations (0, 2.5, 5, 7.5 and 10 units) was dissolved in a reaction buffer (0.5 mM HEPES, pH 7.2, 50 mM calcium chloride, 0.1% CHAPS, 10 mM EDTA, 5% glycerol, 10 mM DTT) and incubated at 37° C. for 1 hour. After transferring 200 μL of the caspase enzyme activated through the procedure to each well of a 96-well plate and then incubating with the probe for measuring the activity of caspase-1 of Example 4 at 37° C., the restoration of fluorescence with time was observed by fluorescence spectroscopy.
The fluorescence image for each reaction solution is shown at the bottom of FIG. 3B.

caspase-11 enzyme
restoration of fluorescence with time by photoluminescence (PL) after cleavage of the probe [1]: restores fluorescence specifically only in the presence of caspase-1 at all times

CCN(CC)c1ccc2nc3ccc(/N=N/c4ccc(N(C)CCCC(=O)NCCCCC(NC(=O)CNC(=O)[C@H](CC(=O)O)NC(=O)[C@H](Cc5c[nH]cn5)NC(=O)[C@H](CCC(=O)O)NC(=O)[C@H](Cc5c[nH]c6ccccc56)NC(=O)CNC(=O)CCCCCCCN5/C(=C/C=C/C=C/C6=[N+](CC)c7ccc8c(S(=O)(=O)O)cc(S(=O)(=O)O)cc8c7C6(C)C)C(C)(C)c6c5ccc5c(S(=O)(=O)O)cc(S(=O)(=O)O)cc65)C(=O)O)cc4)cc3[n+](-c3ccccc3)c2c1 (stereo partly shown) [Example 4]
in-vivo fluorescence depending on the concentration of inflammation-inducing substances (images) ([2]; LPS/ATP into left sole (Ms1: 20 μg LPS + 50 mM ATP; Ms2: 20 μg LPS + 100 mM ATP), probe intravenously, FIG. 5A): the fluorescence was restored better
quantified fluorescence from the top of the left foot and the left calf ([2]; control, Ms1 and Ms2 test groups, FIG. 5B): exhibits stronger fluorescence
fluorescence from the groin, ham and lymph node ([2]; control, Ms1 and Ms2 test groups, FIG. 5C): The strongest fluorescence was observed in the ham lymph node closest to the sole
fluorescence from the extracted large intestine ([3]; FIG. 6D): Strong red fluorescence was observed in the large intestine extracted from the colitis animal model
Cy5.5 fluorescence in isolated colon cells (fluorescence microscope, NLRP3 inflammasome co-staining) ([3]; FIG. 6F): only in the colon cells isolated from the colitis animal model
whole-body fluorescence images after intravenous injection ([3]; day 6, 30-minute intervals, FIG. 6C): red fluorescence was observed clearly in the colitis animal model
fluorescence restoration in cells (THP-1 monocytes): the fluorescence of Cy5.5 was restored effectively as compared to the control group
fluorescence images 90 minutes after intravenous injection (Alzheimer's animal model; Alzheimer's animal models of 3-6 months vs control (pre), FIG. 7A): the fluorescence could be observed in the Alzheimer's animal model from 3 months
co-localisation of probe fluorescence with caspase-1 antibody staining in brain tissue (Alzheimer's animal model; model of 3 months (TG), 3 hours after probe, FIG. 7E): corresponds exactly to the region immunologically stained with the caspase-1 antibody
fluorescence from the brain (Alzheimer's animal model; models of 3, 4, 5 and 6 months, FIG. 7B): fluorescence was observed in the brain of the Alzheimer's animal model from 4 months
fluorescence in quadrisected brain (fluorescence microscope) (Alzheimer's animal model; models of 3-6 months, FIG. 7D): the fluorescence was observed clearly in the hippocampal region of the brain
quantified fluorescence intensity from the brain (Alzheimer's animal model; vs control group (WT), FIG. 7C): significant fluorescence intensity began to be observed starting from the Alzheimer's animal model of 4 months
restoration of fluorescence with time (photoluminescence), specificity among caspase enzymes (caspase-1 enzyme [4]): restores fluorescence specifically only in the presence of caspase-1 at all times
concentration limit of the caspase-1 enzyme that could be measured (caspase-1 enzyme [5]): 7.5 units
change in fluorescence intensity with caspase-1 enzyme concentration (caspase-1 enzyme [5]; caspase-1 at 0, 2.5, 5, 7.5 and 10 units, 37° C.): increase in fluorescence intensity as the concentration of the caspase-1 enzyme increases

caspase-8 enzyme
restoration of fluorescence with time by photoluminescence (PL) after cleavage of the probe [1]: restores fluorescence specifically only in the presence of caspase-1 at all times

caspase-3 enzyme
restoration of fluorescence with time by photoluminescence (PL) after cleavage of the probe [1]: restores fluorescence specifically only in the presence of caspase-1 at all times

caspase-1 enzyme
restoration of fluorescence with time by photoluminescence (PL) after cleavage of the probe [1]: restores fluorescence specifically only in the presence of caspase-1 at all times
